Data published in patent US10633389B2, “CARM1 inhibitors and uses thereof” (Epizyme, Inc., priority 2013, dated 2020).

Test system: asymmetric di-methyl PABP1 in RKO cells
Test: RKO methylation assay, In Cell Western (ICW) for asymmetric di-methyl PABP1
Assay type: cell-based
Details: Homo sapiens, RKO, Cellular potencies, ICW PABP1me2a
In short: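 RKO cells treated with compound for 48 h at 37 °C, then fixed, permeabilized and immunostained for asymmetric di-methyl PABP1, with DRAQ5 as DNA stain. Infrared 700/800 nm signal ratio normalized to DMSO and 20 μM reference-compound controls; IC50 from triplicate wells.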

SMILES | IC50 [µM]
CNCC(O)COc1ccc(Cl)c(-c2nc(NCC3CCCCO3)c(C)c(-c3c(C)noc3C)n2)c1 (stereo not drawn) [Example 31-3] | < 5
CNCC(O)COc1cccc(-c2nc(-c3c(C)noc3C)c(C)c(N3CC4(CN(C(=O)N(C)C)C4)C3)n2)c1 (stereo not drawn) [Example 309-1a] | < 5
CNCC(O)COc1ccc(Cl)c(-c2nc(NC3CC4(C3)CN(C(=O)OC)C4)c(C)c(-c3c(C)noc3C)n2)c1 (stereo not drawn) [Example 45-3] | < 5
CNCC(O)COc1cccc(-c2nc(Nc3ncc(C)cn3)cc(N(C)C3CCOCC3)n2)c1 (stereo not drawn) [Example 513-1a] | 5 to 10
CNC[C@H](O)COc1ccc(Cl)c(-c2nc(-c3c(C)noc3C)c(C)c(N3CC4(CCN(C5CC5)CC4)C3)n2)c1 [Example 55-3] | < 5
CCS(=O)(=O)N1CC2(CCN(c3nc(-c4cccc(OCC(O)CNC)c4)nc(-c4c(C)noc4C)c3C)CC2)C1 (stereo not drawn) [Example 253-1a] | < 5
CNCC(O)COc1cccc(-c2nc(OCC3CCN(S(C)(=O)=O)CC3)c(C)c(-c3c(C)noc3C)n2)c1 (stereo not drawn) [Example 286-1a] | < 5
CNCC(O)COc1ccc(Cl)c(-c2nc(NCC3CCOCC3)c(C)c(-c3c(C)noc3C)n2)c1 (stereo not drawn) [Example 9-3] | < 5
CNCC(O)COc1cccc(-c2nc(N3CCNC(=O)C3)cc(N(C)C3CCOCC3)n2)c1 (stereo not drawn) [Example 575-1a] | 10 to 20
CNCC(O)COc1cccc(-c2nc(N[C@H]3C[C@@](C)(O)C3)cc(-c3c(C)noc3C)n2)c1 (stereo partly drawn) [Example 67-1a] | 10 to 20
CCOC(=O)N1CCCC(CNc2nc(-c3cccc(OCC(O)CNC)c3)nc(-c3c(C)noc3C)c2C)C1 (stereo not drawn) [Example 194-1a] | < 5
CNCC(O)COc1cccc(-c2nc(-c3c(C)noc3C)c(C)c(N3CCCC4(CN(C(=O)N(C)C)C4)C3)n2)c1 (stereo not drawn) [Example 297-1a] | 5 to 10
CNCC(O)COc1cccc(-c2nc(Nc3cc(C)on3)c(C)c(-c3c(C)noc3C)n2)c1 (stereo not drawn) [Example 233-1a] | 10 to 20
CNCC(O)COc1cccc(-c2nc(-c3c(C)noc3C)cc(N(C)c3cnc(OC)nc3)n2)c1 (stereo not drawn) [Example 51-1a] | 10 to 20
CCOC(=O)N1CCC(Nc2nc(-c3cccc(OCC(O)CNC)c3)nc(-c3c(C)noc3C)c2C)C1 (stereo not drawn) [Example 196-1a] | < 5
CNCC(O)COc1cccc(-c2nc(-c3c(C)noc3C)cc(N3CCN(C(C)=O)C[C@H]3C)n2)c1 (stereo partly drawn) [Example 39-1a] | 5 to 10
CNCC(O)COc1cccc(-c2nc(-c3c(C)noc3C)c(C)c(N3C[C@H]4CC[C@@H](C3)N4C)n2)c1 (stereo partly drawn) [Example 116-1a] | 5 to 10
CCS(=O)(=O)N1CCCC(CNc2nc(-c3cccc(OCC(O)CNC)c3)nc(-c3c(C)noc3C)c2C)C1 (stereo not drawn) [Example 167-1a] | < 5
CNCC(O)COc1cccc(-c2nc(OCC3CCN(C4CC4)CC3)c(C)c(-c3c(C)noc3C)n2)c1 (stereo not drawn) [Example 303-1a] | < 5
CNCC(O)COc1cccc(-c2nc(NC3CCN(C(=O)N(C)C)CC3)c(C)c(-c3c(C)noc3C)n2)c1 (stereo not drawn) [Example 244-1a] | < 5
CNCC(O)COc1cccc(-c2nc(N[C@@H]3CCOC3)c(C)c(N3CCC(c4cccnc4)C3)n2)c1 (stereo partly drawn) [Example 461-1a] | 10 to 20
CC[C@@H]1CN(c2nc(-c3cccc(OCC(O)CNC)c3)nc(-c3c(C)noc3C)c2C)CCN1S(=O)(=O)CC (stereo partly drawn) [Example 152-1a] | < 5
CNCC(O)COc1cccc(-c2nc(NC3CCOC3)c(C)c(N3CCN(CC(F)(F)F)CC3)n2)c1 (stereo not drawn) [Example 449-1a] | < 5
CNCC(O)COc1cc(NC)cc(-c2nc(NC3CCOCC3)c(C)c(-c3c(C)noc3C)n2)c1 (stereo not drawn) [Example 136-1a] | < 5

SMILES | IC50 [µM]
CNCC(O)COc1cccc(-c2nc(-c3c(C)noc3C)c(C)c(N3CC(NC(=O)OC)C3)n2)c1 (stereo not drawn) [Example 12-3] | < 5
CNCC(O)COc1cccc(-c2nc(NC3CCN(C(=O)C4CC4)C3)c(C)c(-c3c(C)noc3C)n2)c1 (stereo not drawn) [Example 243-1a] | < 5
CNCC(O)COc1cccc(-c2nc(-c3cnc(CO)n3C)cc(N(C)C3CCOCC3)n2)c1 (stereo not drawn) [Example 572-1a] | 10 to 20
CCOC(=O)N1CCOC[C@H]1CNc1nc(-c2cc(OC[C@H](O)CNC)ccc2F)nc(-c2c(C)noc2C)c1C [Example 60-3] | < 5
CNCC(O)COc1cccc(-c2nc(-c3c(C)noc3C)c(C)c(N3CCN(C(=O)OCCOC)CC3)n2)c1 (stereo not drawn) [Example 134-1a] | < 5
CNCC(O)COc1cccc(-c2nc(-c3c(C)noc3C)c(C)c(N3CCN(C(=O)OC)C(C(F)F)C3)n2)c1 (stereo not drawn) [Example 17-3] | < 5
CNCC(O)COc1cc(N)cc(-c2nc(NC3CCOCC3)c(C)c(-c3c(C)noc3C)n2)c1 (stereo not drawn) [Example 74-1a] | 5 to 10
CNCC(O)COc1cccc(-c2nc(-c3c(C)noc3C)cc(N3CCN(C(=O)N(C)C)[C@@H](C)C3)n2)c1 (stereo partly drawn) [Example 91-1a] | < 5
CNCC(O)COc1cccc(-c2nc(-c3c(C)noc3C)cc(N(C)CCC#N)n2)c1 (stereo not drawn) [Example 5-1a] | 10 to 20
CNCC(O)COc1cccc(-c2nc(-c3c(C)noc3C)cc(N3C[C@@H]4C[C@H]3CN4S(C)(=O)=O)n2)c1 (stereo partly drawn) [Example 80-1a] | 10 to 20
CCS(=O)(=O)N1CCN(c2nc(-c3cccc(OCC(O)CNC)c3)nc(N[C@@H]3CCOC3)c2C)CC1 (stereo partly drawn) [Example 464-1a] | < 5
CNCC(O)COc1cccc(-c2nc(NC3CCN(C4COC4)CC3)c(C)c(-c3c(C)noc3C)n2)c1 (stereo not drawn) [Example 263-1a] | < 5
CNCC(O)COc1cccc(-c2nc(NCC3CCCN(CC(F)F)C3)c(C)c(-c3c(C)noc3C)n2)c1 (stereo not drawn) [Example 193-1a] | < 5
CNCC(O)COc1cccc(-c2nc(NC3CCOC3)c(C)c(C(=O)NC3CCN(C)CC3)n2)c1 (stereo not drawn) [Example 397-1a] | 10 to 20
CNCC(O)COc1cccc(-c2nc(NC3CCOCC3C)c(C)c(-c3c(C)noc3C)n2)c1 (stereo not drawn) [Example 269-1a] | < 5
CNCC(O)COc1cccc(-c2nc(-c3c(C)noc3C)c(C)c(N3CCN4C(=O)OC[C@@H]4C3)n2)c1 (stereo partly drawn) [Example 110-1a] | 5 to 10
CNC[C@H](O)COc1ccc(Cl)c(-c2nc(N[C@H]3C[C@@H](OC)C3)c(C)c(-c3c(C)noc3C)n2)c1 [Example 54-3] | < 5
CNCC(O)COc1cccc(-c2nc(C(=O)NCC3CCOCC3)cc(N(C)C3CCOCC3)n2)c1 (stereo not drawn) [Example 548-1a] | 10 to 20
CNCC(O)COc1cccc(-c2nc(-c3ccnc(C(C)(C)O)c3)cc(N(C)C3CCOCC3)n2)c1 (stereo not drawn) [Example 503-1a] | < 5
CNCC(O)COc1cccc(-c2nc(-c3c(C)noc3C)cc(N3CCN(CCF)CC3)n2)c1 (stereo not drawn) [Example 68-1a] | 5 to 10
CNCC(O)COc1ccc(Cl)c(-c2nc(NCC3COCCO3)c(C)c(-c3c(C)noc3C)n2)c1 (stereo not drawn) [Example 41-3] | < 5
CNC[C@@H](O)COc1cccc(-c2nc(-c3c[nH]c4ncncc34)c(C)c(N(C)C3CCOCC3)n2)c1 [Example 526-1a] | 5 to 10
CNCC(O)COc1cccc(-c2nc(-c3c(C)noc3C)cc(N3C[C@H]4C[C@@H]3CN4S(C)(=O)=O)n2)c1 (stereo partly drawn) [Example 100-1a] | 5 to 10

Now from value to molecule:

IC50 [µM] | SMILES
10 to 20 | CNC[C@@H](O)COc1cccc(-c2nc(NC3CCN(C(=O)OC)CC3)cc(-c3c(C)nnn3C)n2)c1 [Example 278-3]
< 5 | CNC[C@@H](O)COc1ccc(Cl)c(-c2nc(N[C@@H]3CCN(C4CC4)C[C@@H]3F)c(Cl)c(-c3c(C)noc3C)n2)c1 [Example 211-3]
< 5 | CNC[C@@H](O)COc1ccc(Cl)c(-c2nc(NC[C@H]3CCCO3)c(C)c(-c3c(C)noc3C)n2)c1 [Example 130-3]
< 5 | CNC[C@@H](O)COc1ccc(Cl)c(-c2nc(NC3CCN(C4CC4)CC3(F)F)c(C)c(-c3c(C)noc3C)n2)c1 (stereo partly drawn) [Example 292-3]
< 5 | CNC[C@H](O)COc1ccc(F)c(-c2nc(-c3c(C)noc3C)c(C)c(N3CCC4(CC3)CN(S(C)(=O)=O)C4)n2)c1 [Example 76-3]
< 5 | CNC[C@@H](O)COc1ccc(Cl)c(-c2nc(N[C@H]3C[C@@](C)(OC)C3)c(C)c(-c3c(C)noc3C)n2)c1 [Example 110-3]
< 5 | CNC[C@@H](O)COc1ccc(Cl)c(-c2nc(NC[C@H]3COCCN3C(=O)OC(C)C)c(C)c(-c3c(C)noc3C)n2)c1 [Example 134-3]
< 5 | CCOC(=O)N1CCOC[C@@H]1COc1nc(-c2cc(OC[C@H](O)CNC)ccc2Cl)nc(-c2c(C)noc2C)c1C [Example 161-3]
< 5 | CNC[C@H](O)COc1ccc(Cl)c(-c2nc(-c3c(C)noc3C)c(C)c(N3CCC4(CC3)CN(S(C)(=O)=O)C4)n2)c1 [Example 75-3]
< 5 | CNC[C@@H](O)COc1ccc(Cl)c(-c2nc(N[C@H]3C[C@@H](OC)C3)c(C)c(-c3c(C)noc3C)n2)c1 [Example 144-3]
< 5 | CNC[C@@H](O)COc1ccc(F)c(-c2nc(-c3c(C)noc3C)c(Cl)c(N3Cc4nccnc4C3)n2)c1 [Example 295-3]
< 5 | CNC[C@@H](O)COc1ccc(Cl)c(-c2nc(-c3c(C)noc3C)c(C)c(N3CCc4ccncc43)n2)c1 [Example 174-3]
< 5 | CNC[C@@H](O)COc1ccc(Cl)c(-c2nc(-c3c(C)noc3C)c(C)c(N3CC(F)(F)C3)n2)c1 [Example 184-3]
< 5 | CCOC(=O)N1CCOC[C@@H]1CNc1nc(-c2cc(OCC(O)CNC)ccc2Cl)nc(-c2c(C)nsc2C)c1C (stereo partly drawn) [Example 93-3]
< 5 | CNC[C@@H](O)COc1ccc(F)c(-c2nc(-c3c(C)noc3C)c(C)c(N3CC4(CCN(CC(F)F)CC4)C3)n2)c1 [Example 280-3]
< 5 | CNC[C@@H](O)COc1ccc(Cl)c(-c2nc(-c3c(C)noc3C)c(C)c(N3Cc4nccnc4C3)n2)c1 [Example 142-3]
< 5 | CNC[C@@H](O)COc1ccc(Cl)c(-c2nc(-c3c(C)noc3C)c(C)c(N3CC4(CCOC4)C3)n2)c1 [Example 120-3]
< 5 | CNC[C@@H](O)COc1ccc(Cl)c(-c2nc(N[C@@H]3CO[C@H](C)C3)c(Cl)c(-c3c(C)noc3C)n2)c1 [Example 180-3]
< 5 | CNC[C@@H](O)COc1ccc(Cl)c(-c2nc(N[C@H]3C[C@@H](OC)C3)c(Cl)c(-c3c(C)noc3C)n2)c1 [Example 216-3]
